Data taken from the COVID Moonshot data (paper PMC11187573), “Identification of SARS-CoV-2 Mpro inhibitors through deep reinforcement learning for de novo drug design and computational chemistry approaches” (RSC Medicinal Chemistry, 2024).

How the values were obtained:
[1] = molecular target: SARS-CoV-2 Main Protease (SARS-CoV-2) (UniProt P0DTD1)
[2] = molecular target: SARS-CoV-2 Main Protease (SARS-CoV-2) (UniProt P0DTD1); remark: listed apart in the source

| Structure (SMILES) | inhibition ([1]; 20.0 µM) [%] | inhibition ([1]; 50.0 µM) [%] | inhibition ([2]; 20.0 µM) [%] | relative solubility at 20 uM | relative solubility at 100 uM | inhibition ([2]; 50.0 µM) [%] | IC50 [2] [µM] | IC50 [1] [µM] |
| --- | --- | --- | --- | --- | --- | --- | --- | --- |
| O=C(Nc1ccc([N+](=O)[O-])cc1Cl)c1cccc(Cl)c1 | -10.8 | -11.4 | 1.31 | 0.76 | 0.57 | – | – | – |
| N#Cc1ccccc1S(=O)(=O)N1CCN(C(=O)c2cc(=O)[nH]c3ccc(F)cc23)CC1 | 14.7 | 29.9 | – | 0.99 | 0.92 | 29.9 | – | – |
| O=C(C1CCN(c2ccncc2)CC1)N1CCOCC1 | – | -22.6 | 0 | 1 | 1 | 0 | – | – |
| O=C(Cc1cccnc1Br)Nc1cccc(OCCn2cncn2)c1 | – | -21.7 | 0 | 1 | 1 | 0 | – | – |
| COc1ccc(C2CC(c3cccs3)=NN2C(=O)CCl)cc1OC (stereo not drawn) | 99.4 | 99.2 | 95.7 | 0.95 | 0.83 | 91.1 | 0.969 | – |
| CCS(=O)(=O)N1CCC(C(=O)Nc2cc(Cl)ccc2O)CC1 | -1.05 | -2.7 | – | 1 | 1 | 0 | – | – |
| C=CC(=O)N(c1ccc(C(C)(C)C)cc1)C(C(=O)NC(C)(C)C)c1cncc(OC)c1 (stereo not drawn) | -13.4 | -6.87 | 0.0741 | 1 | 0.99 | 8.47 | – | – |
| Cc1[nH]c2ccccc2c1/C=N/N(C)C(=O)c1ccc2c(c1)OCO2 | 2.2 | -13.4 | – | 0.78 | 0.77 | -6.66 | – | – |
| N#Cc1cc(Cl)cc(NC(=O)Nc2cccnc2)c1 | 23 | 43.9 | 6.78 | 0.99 | 0.88 | 36.5 | – | – |
| O=C(CCl)N1CCN(S(=O)(=O)c2cccc(F)c2)CC1 | 97.3 | 104 | 96.6 | 1 | 1 | 96.8 | 2.02 | 4.55 |
| Cc1nc(CCn2c(C3CCC(=O)N3)nnc2N2CCOC(C)(C)C2)n[nH]1 (stereo not drawn) | -0.233 | 2.23 | – | 1 | 1 | 4.69 | – | – |
| CCCSCC(=O)C(C#N)C(=O)Nc1ccccc1F (stereo not drawn) | – | -9.47 | 0.68 | 1 | 1 | 2.12 | – | – |
| O=C(Nc1nnc(-c2ccccn2)o1)C1CCN(S(=O)(=O)c2ccc(F)cc2)CC1 | 3.87 | -71 | – | 0.95 | 0.96 | 0 | – | – |
| CC(=O)N[C@@H](Cc1ccc(O)cc1)C(=O)NC(CN1CCN(C(=O)CCl)CC1)c1ccccc1 (stereo in doubt) | 21.3 | 41.2 | – | 0.99 | 1 | 31.1 | – | – |
| Cc1nnc(CNC(=O)C2CCOc3ccc(Cl)cc32)n1C1CC1 (stereo not drawn) | 6.91 | 0.282 | – | 1 | 1 | 0 | – | – |
| C=CC(=O)N(c1ccc(C2(C)CC2)cc1)C(C(=O)NC(C)(C)C)c1cccnc1 (stereo not drawn) | – | -13.5 | 0 | 1 | 1 | 10.1 | – | – |
| Cc1ccccc1CNc1ccccc1NC(=O)C(O)c1cccnc1 (stereo not drawn) | -0.056 | 7.28 | 4.59 | 0.95 | 0.94 | 35.7 | – | – |
| CS(=O)(=O)N1CCN(C(=O)CCl)CC1c1ccccc1 (stereo not drawn) | 64.6 | 69.5 | 87.5 | 1 | 1 | 95.9 | 3.31 | – |

| Structure (SMILES) | inhibition ([1]; 20.0 µM) [%] | inhibition ([1]; 50.0 µM) [%] | inhibition ([2]; 20.0 µM) [%] | relative solubility at 20 uM | relative solubility at 100 uM | inhibition ([2]; 50.0 µM) [%] | IC50 [2] [µM] | IC50 [1] [µM] |
| --- | --- | --- | --- | --- | --- | --- | --- | --- |
| C=CC(=O)N(c1ccc(C(C)(C)C)cc1)C(C(=O)Nc1ccc(OC)cc1OC)c1cccnc1 (stereo not drawn) | 48.9 | 41.6 | 5.03 | 0.98 | 0.84 | 45.9 | – | – |
| O=C(C1CCN(c2ccncc2)CC1)N1CCS(=O)(=O)CC1 | – | -27.4 | 19.7 | 1 | 1 | 42.9 | – | – |
| O=C(CCl)N1CCN(Cc2cc(Cl)cc(Cl)c2)CC1 | 76.9 | 69.1 | 100 | 1 | 1 | 100 | 0.475 | – |
| Cc1nnc(C2Cc3ccccc3CN2C(=O)CCl)o1 (stereo not drawn) | 16.3 | 41.9 | – | 0.99 | 0.99 | 18.1 | – | – |
| CNC(=O)OC1CCN(Cc2ccccc2)CC1 | – | 17.6 | 0.824 | 0.99 | 1 | 0 | – | – |
| O=C(CCl)N1CCN(Cc2cccc(CNC(=O)N3CCOCC3)c2)CC1 | 11.7 | 32.4 | – | 1 | 1 | 95.6 | 50.3 | – |
| C=CC(=O)N(c1cc(C(C)(C)C)on1)C(C(=O)Nc1c(C)cccc1CC)c1cccnc1 (stereo not drawn) | 7.33 | 21.1 | 1.49 | 0.99 | 0.9 | – | – | – |
| O=C(CCl)N1CCN(C2(c3cccc(Cl)c3)CC2)CC1 | 55.7 | 80.8 | – | 1.01 | 0.99 | 41.2 | – | 52.3 |
| CC1(C)Cc2cccc(OCCNC(=O)c3cc(=O)[nH]c4ccc(F)cc34)c2O1 | 13.9 | 23.7 | – | 0.98 | 0.84 | 42 | – | – |
| CCN(CC1COc2ccccc2O1)C(=O)c1cc(=O)[nH]c2ccc([N+](=O)[O-])cc12 (stereo not drawn) | 2.87 | -7.35 | – | 1 | 1 | 0 | – | – |
| O=C(CCl)NC(CO)c1cccc(Cl)c1 (stereo not drawn) | – | 51.6 | 16 | 1 | 0.99 | 45.3 | – | – |
| C=CC(=O)N(c1ccc(N(C)C)c(C)c1)C(C(=O)Nc1ccc(Cl)cc1)c1cccnc1 (stereo not drawn) | 4.26 | 12.1 | 0 | 0.88 | 0.78 | – | – | – |
| O=C(NCC1COc2ccccc2O1)c1cc(=O)[nH]c2ccc(F)cc12 (stereo not drawn) | 3.84 | 18.6 | – | 1 | 0.79 | 16.4 | – | – |
| O=C(Cc1cccnc1Cl)Nc1cccc(OCCc2ccccc2)c1 | 1.54 | 6.9 | 0 | 0.81 | 0.27 | 5.03 | – | – |
| O=C(NCc1ccno1)c1ccccc1Oc1ccc(Cl)cc1Cl | -13 | -12.4 | 0 | 1 | 0.96 | 0 | – | – |
| N#Cc1ccc(S(=O)(=O)N2CCN(C(=O)c3cc(=O)[nH]c4cc(F)ccc34)CC2)cc1 | 6.9 | 39.9 | – | 0.94 | 0.94 | 0.23 | – | – |
| C=CC(=O)NCc1ccc(C(C)NC(=O)OC(C)(C)C)cc1 (stereo not drawn) | – | 6.84 | 0 | 1 | 1.01 | 0 | – | – |
| O=C(c1ccccc1)N1CCN(C(=O)C2CCOCC2)CC1 | 2.9 | 6.27 | 0.98 | 1 | 1 | 5.34 | – | – |
